In patent publication US11242337B2, “Compounds useful for treating gastrointestinal tract disorders” (Ardelyx, Inc., priority 2017, dated 2022):

What was measured:
[1] = human absorption data, from Ertl et al., J. Med. Chem, 2000; cited from earlier work
NHE3 = target: T1, NHE3 (Homo sapiens, UniProt P48764); assay: persistent inhibition of NHE3 in the cell-based assay of example 181 (4-chloro vs 4-cyano pairs); conditions: for IC50: read-out: pIC50 (persistent) (converted); for Percent Inhibition: cell-based assay of example 181, persistent
T1 construct: expressed in transfected cells
T1 sequence (P48764 26-834): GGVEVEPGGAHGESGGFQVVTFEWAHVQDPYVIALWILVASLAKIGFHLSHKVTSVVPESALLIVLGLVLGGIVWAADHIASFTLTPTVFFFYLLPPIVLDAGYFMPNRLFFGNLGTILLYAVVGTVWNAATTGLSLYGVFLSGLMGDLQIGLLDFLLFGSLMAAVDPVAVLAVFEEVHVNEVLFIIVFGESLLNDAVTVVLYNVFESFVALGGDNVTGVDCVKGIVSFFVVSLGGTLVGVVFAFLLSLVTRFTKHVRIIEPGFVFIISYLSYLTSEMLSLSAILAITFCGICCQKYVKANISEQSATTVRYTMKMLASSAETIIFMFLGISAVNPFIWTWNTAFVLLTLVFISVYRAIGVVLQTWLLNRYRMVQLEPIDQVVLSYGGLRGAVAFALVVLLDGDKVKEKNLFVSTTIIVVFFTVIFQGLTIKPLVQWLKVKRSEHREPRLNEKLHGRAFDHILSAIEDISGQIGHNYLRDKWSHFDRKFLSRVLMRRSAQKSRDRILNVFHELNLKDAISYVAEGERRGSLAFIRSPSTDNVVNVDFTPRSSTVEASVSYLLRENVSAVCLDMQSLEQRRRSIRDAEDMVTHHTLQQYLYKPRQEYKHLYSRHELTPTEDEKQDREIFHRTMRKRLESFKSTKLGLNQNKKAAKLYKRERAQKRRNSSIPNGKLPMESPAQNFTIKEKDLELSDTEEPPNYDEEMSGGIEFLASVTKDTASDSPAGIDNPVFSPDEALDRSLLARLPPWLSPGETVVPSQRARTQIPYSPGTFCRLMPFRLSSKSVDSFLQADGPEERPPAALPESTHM
T1 sequence (Q99653 2-195 partner limits assumed): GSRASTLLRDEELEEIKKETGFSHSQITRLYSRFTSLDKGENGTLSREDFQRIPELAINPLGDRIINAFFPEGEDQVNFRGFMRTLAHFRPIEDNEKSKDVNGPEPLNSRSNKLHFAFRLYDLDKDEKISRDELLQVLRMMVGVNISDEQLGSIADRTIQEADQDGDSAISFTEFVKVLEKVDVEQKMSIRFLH
Procedure: The following pairs of compounds differ only in the 4-position substituent (either chloro (X—Cl) or cyano (X—CN)):
The ability of compounds to inhibit human and rat NHE-3-mediated Na^+ dependent H^+ antiport after application and washout was measured using a modification of the pH sensitive dye method described above. PS120 fibroblasts stably expressing human NHE3 and NHERF2 were obtained from Mark Donowitz (Baltimore, Md.). Opossum kidney (OK) cells were obtained from the ATCC and propagated per their instructions. The rat NHE-3 gene was introduced into OK cells via electroporation, and cells were seeded into 96 well plates and grown overnight. Medium was aspirated from the wells, cells were washed once with NaCl-HEPES buffer (100 mM NaCl, 50 mM HEPES, 10 mM glucose, 5 mM KCl, 2 mM CaCl2, 1 mM MgCl2, pH 7.4), then overlayed with NaCl-HEPES buffer containing 0-30 μM test compound. After a 60 min incubation at room temperature, the test drug containing buffer was aspirated from the cells. Following aspiration, cells were washed once with NaCl-HEPES buffer without drug, then incubated for 30 min at 37° C. with NH4Cl-HEPES buffer (20 mM NH4Cl, 80 mM NaCl, 50 mM HEPES, 5 mM KCl, 2 mM CaCl2, 1 mM MgCl2, pH 7.4) containing 5 μM BCECF-AM. Cells were washed once with Ammonium free, Na^+-free HEPES (100 mM choline, 50 mM HEPES, 10 mM glucose, 5 mM KCl, 2 mM CaCl2, 1 mM MgCl2, pH 7.4) and incubated in the same buffer for 10 minutes at room temperature to lower intracellular pH. NHE-3-mediated recovery of neutral intracellular pH was initiated (10 min after compound washout) by addition of Na-HEPES buffer. […] Changes in intracellular pH were monitored using a FLIPR Tetra® (Molecular Devices, Sunnyvale, Calif.) by excitation at λex 439 to 505 nm, and measuring BCECF fluorescence at λem 538 nm. The initial rate of the fluorescence ratio change was used as a measure of NHE-mediated Na^+/H^+ activity, and reported as the change in fluorescence ratio per minute.

gastrointestinal transit = assay: Restoration of gastrointestinal motility in opioid induced constipation (loperamide); assay type: in vivo, mice; conditions: vehicle orally, loperamide (0.3 to 6 mg/kg) subcutaneously, 30-minute period
Procedure: Approximately eight-week old, female, CD1 […] are purchased from Envigo (Livermore, Calif.), are housed 4 per cage and acclimated for at least 48 hours before study initiation. Animals are fed standard laboratory rodent chow Harlan Teklad Global 2018 (Madison, Wis.). Animals have ad libitum access to food and water for the duration of the acclimation period and are maintained in a temperature and humidity controlled room on a standard light/dark cycle of 6 AM to 6 PM. Following an overnight fast, with free access to water, animals are dosed by oral gavage with varying doses of test compound or vehicle (3 mM HCl, 0.01% Tween80), at a dose volume of 5 mL/kg. […] For an individual animal, the length travels by the Evans Blue dye front is divided by the length of the whole small intestine, measured from the pylorus to the cecum, and multiplied by 100, to provide the distance of the small intestine travelled by the dye as a percentage.

[2] = cell-based assay of example 181, after washout

SMILES	% FA [1] [%]	further results
OC[C@H]1O[C@@H](O[C@@H]2[C@@H](CO)OC(O)(CO)[C@H]2O)[C@H](O)[C@@H](O)[C@H]1O (mixture of isomers) [lactulose, reference compound]	0.6	
CN(C)[C@@H]1CCCN([C@H]2Cc3c(Cl)cc(Cl)cc3[C@@H]2Oc2ccc(S(=O)(=O)NCCOCCOCCNC(=O)NCCCCNC(=O)NCCOCCOCCNS(=O)(=O)c3ccc(O[C@H]4c5cc(Cl)cc(Cl)c5C[C@@H]4N4CCC[C@@H](N(C)C)C4)cc3)cc2)C1 [E-Cl, 3-(2-{2-[2-(4-{[(1S,2S)-4,6-dichloro-2-[(3R)-3-(dimethylamino)piperidin-1-yl]-2,3-dihydro-1H-inden-1-yl]oxy}benzenesulfonamido)ethoxy]ethoxy}ethyl)-1-(4-{[(2-{2-[2-(4-{[(1S,2S)-4,6-dichloro-2-[(3R)-3-(dimethylamino)piperidin-1-yl]-2,3-dihydro-1H-inden-1-yl]oxy}benzenesulfonamido)ethoxy]ethoxy}ethyl)carbamoyl]amino}butyl)urea]		IC50 (NHE3; [2]): 5.01 nM; Percent Inhibition (NHE3): 99%
Cc1cc(S(=O)(=O)NCCOCCOCCNC(=O)NCCCCNC(=O)NCCOCCOCCNS(=O)(=O)c2ccc(O[C@H]3c4cc(Cl)cc(C#N)c4C[C@@H]3N3CCNCC3)c(C)c2)ccc1O[C@H]1c2cc(Cl)cc(C#N)c2C[C@@H]1N1CCNCC1 [F-CN, 3-(2-{2-[2-(4-{[(1S,2S)-6-chloro-4-cyano-2-(piperazin-1-yl)-2,3-dihydro-1H-inden-1-yl]oxy}-3-methylbenzenesulfonamido)ethoxy]ethoxy}ethyl)-1-(4-{[(2-{2-[2-(4-{[(1S,2S)-6-chloro-4-cyano-2-(piperazin-1-yl)-2,3-dihydro-1H-inden-1-yl]oxy}-3-methylbenzenesulfonamido)ethoxy]ethoxy}ethyl)carbamoyl]amino}butyl)urea]		IC50 (NHE3; [2]): 2.51 nM; Percent Inhibition (NHE3): 88%
Cc1cc(S(=O)(=O)NCCOCCOCCNC(=O)NCCCCNC(=O)NCCOCCOCCNS(=O)(=O)c2ccc(O[C@H]3c4cc(Cl)cc(Cl)c4C[C@@H]3N3CCNCC3)c(C)c2)ccc1O[C@H]1c2cc(Cl)cc(Cl)c2C[C@@H]1N1CCNCC1 [F-Cl, 3-(2-{2-[2-(4-{[(1S,2S)-4,6-dichloro-2-(piperazin-1-yl)-2,3-dihydro-1H-inden-1-yl]oxy}-3-methylbenzenesulfonamido)ethoxy]ethoxy}ethyl)-1-(4-{[(2-{2-[2-(4-{[(1S,2S)-4,6-dichloro-2-(piperazin-1-yl)-2,3-dihydro-1H-inden-1-yl]oxy}-3-methylbenzenesulfonamido)ethoxy]ethoxy}ethyl)carbamoyl]amino}butyl)urea]		IC50 (NHE3; [2]): 20 nM; Percent Inhibition (NHE3): 104%
N#Cc1cc(Cl)cc2c1C[C@H](N1CCNCC1)[C@H]2Oc1ccc(S(=O)(=O)NCCOCCOCCNC(=O)NCCCCNC(=O)NCCOCCOCCNS(=O)(=O)c2ccc(O[C@H]3c4cc(Cl)cc(C#N)c4C[C@@H]3N3CCNCC3)cc2)cc1 [G-CN, 3-(2-{2-[2-(4-{[(1S,2S)-6-chloro-4-cyano-2-(piperazin-1-yl)-2,3-dihydro-1H-inden-1-yl]oxy}benzenesulfonamido)ethoxy]ethoxy}ethyl)-1-(4-{[(2-{2-[2-(4-{[(1S,2S)-6-chloro-4-cyano-2-(piperazin-1-yl)-2,3-dihydro-1-yl]oxy}benzenesulfonamido)ethoxy]ethoxy}ethyl)carbamoyl]amino}butyl)urea]		pIC50 (persistent) (NHE3; [2]): 9.0
O=C(NCCCCNC(=O)NCCOCCOCCNS(=O)(=O)c1ccc(O[C@H]2c3cc(Cl)cc(Cl)c3C[C@@H]2N2CCNCC2)cc1)NCCOCCOCCNS(=O)(=O)c1ccc(O[C@H]2c3cc(Cl)cc(Cl)c3C[C@@H]2N2CCNCC2)cc1 [G-Cl, 3-(2-{2-[2-(4-{[(1S,2S)-4,6-dichloro-2-(piperazin-1-yl)-2,3-dihydro-1H-inden-1-yl]oxy}benzenesulfonamido)ethoxy]ethoxy}ethyl)-1-(4-{[(2-{2-[2-(4-{[(1S,2S)-4,6-dichloro-2-(piperazin-1-yl)-2,3-dihydro-1H-inden-1-yl]oxy}benzenesulfonamido)ethoxy]ethoxy}ethyl)carbamoyl]amino}butyl)urea]		IC50 (NHE3; [2]): 6.31 nM; Percent Inhibition (NHE3): 82%
C=CCc1ccccc1OCC(O)CNC(C)C (stereo not drawn) [alprenolol]	96	
O=C(O)P(=O)(O)O [foscarnet]	17	
CN(C)C(=O)C(CCN1CCC(O)(c2ccc(Cl)cc2)CC1)(c1ccccc1)c1ccccc1 [loperamide, reference compound]		length of the small intestine travelled by the Evans Blue dye front (gastrointestinal transit): ~25%
OC[C@@H](O)[C@@H](O)[C@H](O)[C@H](O)CO [mannitol, reference compound]	26	
Cc1ccccc1N1C(=O)c2cc(S(N)(=O)=O)c(Cl)cc2NC1C (stereo not drawn) [metolazone, Metolazone, reference compound]	64	
O=C(O)c1cc(/N=N/c2ccc(O)c(C(=O)O)c2)ccc1O [olsalazine]	2.3	
C=CCOc1ccccc1OCC(O)CNC(C)C (stereo not drawn) [ozprenolol]	97	
Cc1cc(=O)n(-c2ccccc2)n1C [phenazone]	97	
CC(C)NCC(O)COc1cccc2[nH]ccc12 (stereo not drawn) [pindolol]	92	
CC(=O)Nc1ccc(OCC(O)CNC(C)C)cc1 (stereo not drawn) [practolol]	95	
OC[C@H]1O[C@H](OC[C@H]2O[C@H](O[C@]3(CO)O[C@H](CO)[C@@H](O)[C@@H]3O)[C@H](O)[C@@H](O)[C@@H]2O)[C@H](O)[C@@H](O)[C@H]1O [raffinose]	0.3	
O=C(O)c1cc(/N=N/c2ccc(S(=O)(=O)Nc3ccccn3)cc2)ccc1O [sulfasalazine, reference compound]	12	
CCN1CCCC1CNC(=O)c1cc(S(N)(=O)=O)ccc1OC (stereo not drawn) [sulpiride]	36	
NC[C@H]1CC[C@H](C(=O)O)CC1 [tranexamic acid]	55	
